Measured values published in PubChem BioAssay (NCI).
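Where inhibition never reached the appropriate level, the endpoint shown equals the highest concentration tested. Otherwise, values were interpolated linearly from a five-concentration, 48-hour dose response in 96-well plates. TGI marks complete inhibition of growth.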

What was measured:
Assay in all cases: DTP human tumour cell line panel, 48 h
[1] = test system: MDA-MB-435
[2] = test system: NCI-H226 lung
[3] = test system: DU-145 prostate
[4] = test system: SNB-75 CNS
[5] = test system: NCI-H460 lung
[6] = test system: OVCAR-8 ovarian
[7] = test system: UACC-62 melanoma
[8] = test system: CCRF-CEM leukemia
[9] = test system: SW-620 colon
[10] = test system: MALME-3M melanoma

| SMILES | TGI [1] | TGI [2] | TGI [3] | TGI [4] | TGI [5] | TGI [6] | TGI [7] | TGI [8] | TGI [9] | TGI [10] |
| --- | --- | --- | --- | --- | --- | --- | --- | --- | --- | --- |
| CCO/C(O)=C(/C(=N)N1CCCC1)C(=O)Nc1cccc(C(F)(F)F)c1 | > 100 µM | 83.7 µM | > 100 µM | 85.1 µM | > 100 µM | > 100 µM | > 100 µM | > 100 µM | > 100 µM | > 100 µM |
| COc1cc2c(/C=C3/C(=O)N(c4ccccc4)c4ccccc43)c(Cl)[nH]c2cc1C | 3.55 µM | > 100 µM | 9.82 µM | 18.9 µM | 9.04 µM | > 31.6 µM | 27.9 µM | > 38.5 µM | > 100 µM | 19 µM |
| [N-]=[N+]=Nc1ccc(CNc2cc(=O)[nH]c(=O)[nH]2)cc1 | > 80 µM | > 100 µM | > 100 µM | > 100 µM | > 100 µM | > 100 µM | > 100 µM | > 100 µM | > 100 µM | > 100 µM |
| Cc1c(NC2(C)C(=O)N(/N=C/c3ccccc3)N=C2c2ccccc2)n[nH]c1-c1ccccc1 (stereo not given) | > 100 µM | > 100 µM | > 100 µM | > 100 µM | > 100 µM | > 100 µM | > 100 µM | > 100 µM | > 100 µM | > 100 µM |
| CC(=O)N1CCN(C23OC4(N5CCN(C(C)=O)CC5)C5C6CC(C7C6C4C72)C53)CC1 (stereo not given) | > 100 µM | > 100 µM | > 100 µM | > 100 µM | > 100 µM | > 100 µM | > 100 µM | > 100 µM | > 100 µM | > 100 µM |
| Cc1ccc(S(=O)(=O)c2c(O)c3ccccc3n(C)c2=O)cc1 | > 100 µM | > 100 µM | > 100 µM | > 100 µM | > 100 µM | > 100 µM | > 100 µM | > 100 µM | > 100 µM | > 100 µM |
| CN(Cc1cnc2nc(N)nc(N)c2n1)c1ccc(C(=O)NC(CCC(=O)NC(P(=O)(O)O)P(=O)(O)O)C(=O)O)cc1 (stereo not given) | > 100 µM | > 100 µM | > 100 µM | > 100 µM | > 100 µM | > 100 µM | > 100 µM | > 100 µM | 28.3 µM | > 100 µM |
| CN(C)CCCOCCn1c2c(c3ccccc31)CCCC2 | 34.2 µM | 63.5 µM | 67.7 µM | 57.9 µM | 28.9 µM | 35.9 µM | 31.1 µM | 30 µM | 37.5 µM | 32.5 µM |
| C/C(O)=C/c1nc2ccc([N+](=O)[O-])cc2nc1/C=C(/C)O | > 100 µM | > 100 µM | > 100 µM | > 100 µM | 51.5 µM | > 100 µM | > 100 µM | 61.9 µM | > 100 µM | 94.3 µM |
| Cn1c2ccccc2c2c3c(c4c5ccccc5n(C)c4c21)C(=O)c1ccccc1C3=O | > 100 µM | > 100 µM | > 100 µM | > 100 µM | > 100 µM | > 100 µM | > 100 µM | > 100 µM | > 100 µM | 60 µM |
| Cc1ccc(-c2n[nH]c(=O)[nH]2)cc1[N+](=O)[O-] | > 100 µM | > 100 µM | > 100 µM | > 100 µM | > 100 µM | > 100 µM | > 100 µM | > 100 µM | > 100 µM | > 100 µM |
| COC(=O)[C@@]12CCCC(=O)[C@@H]1[C@H]1CCCC[C@H]12 | > 100 µM | > 100 µM | > 100 µM | > 100 µM | > 100 µM | > 100 µM | > 100 µM | > 100 µM | > 100 µM | > 100 µM |
| CC(C)(C)OC[C@H](O)CC#N | > 100 µM | > 100 µM | > 100 µM | > 100 µM | > 100 µM | > 100 µM | > 100 µM | > 100 µM | > 100 µM | > 100 µM |
| CC(=O)OCC=C(CCl)CCC(Br)C(C)(C)Br (mixture of isomers) | > 10 µM | > 10 µM | > 10 µM | > 10 µM | > 10 µM | > 10 µM | > 10 µM | > 10 µM | > 10 µM | > 10 µM |
| O=C(CNc1ccc(Cl)cc1Cl)NC1C=Cc2ccc(S(=O)(=O)Nc3ccc(Cl)cc3Cl)cc2C1=O (stereo not given) | > 100 µM | > 100 µM | > 100 µM | > 100 µM | > 100 µM | > 100 µM | > 100 µM | > 100 µM | > 100 µM | > 100 µM |
| COc1ccc(OC)c2c1C1CCC(=O)N1CN2C(C)=O (stereo not given) | > 100 µM | > 100 µM | > 100 µM | > 100 µM | > 100 µM | > 100 µM | > 100 µM | > 100 µM | > 100 µM | > 100 µM |

| SMILES | TGI [1] | TGI [2] | TGI [3] | TGI [4] | TGI [5] | TGI [6] | TGI [7] | TGI [8] | TGI [9] | TGI [10] |
| --- | --- | --- | --- | --- | --- | --- | --- | --- | --- | --- |
| COc1ccc(C2C(C#N)=C(S)N(C3OC(CO)C(O)C(O)C3O)C(c3ccccc3)=C2C(C)=O)cc1 (stereo not given) | > 100 µM | > 100 µM | > 100 µM | 97 µM | > 100 µM | > 100 µM | > 100 µM | > 100 µM | > 100 µM | > 100 µM |
| O=C(N[C@H]1c2ccsc2/C(=N/O)[C@H]1O)C(F)(F)F | > 100 µM | > 100 µM | > 100 µM | > 100 µM | > 100 µM | > 100 µM | > 100 µM | > 100 µM | > 100 µM | > 100 µM |
| C=CC[C@@]1(C(=O)OC)[C@H](Sc2ccccc2)C1(C)C | > 100 µM | > 100 µM | > 100 µM | 80.8 µM | > 100 µM | > 100 µM | > 100 µM | > 100 µM | > 100 µM | 84.9 µM |
| CCOC(=O)C(CS)NC(=O)CCCCCCCC(=O)NC(CS)C(=O)OCC (stereo not given) | > 100 µM | > 100 µM | > 100 µM | > 100 µM | > 100 µM | > 100 µM | > 100 µM | > 100 µM | > 100 µM | > 100 µM |
| O=c1oc2ccc(Cl)cc2cc1-c1cn2cc(Cl)ccc2n1 | 1.18 µM | > 100 µM | > 100 µM | > 100 µM | > 100 µM | > 100 µM | 15 µM | > 100 µM | > 100 µM | 92.5 µM |
| O=C1c2cccc3cccc(c23)C(=O)N1CCCNOCCONCCCN1C(=O)c2cccc3cccc(c23)C1=O | > 100 µM | > 100 µM | > 100 µM | > 100 µM | > 100 µM | > 100 µM | > 100 µM | 91.6 µM | > 100 µM | > 100 µM |
| CC1(C)Oc2ccc(NC(=O)CCC(N)C(=O)O)cc2O1 (stereo not given) | > 100 µM | > 100 µM | > 100 µM | > 100 µM | > 100 µM | > 100 µM | > 100 µM | > 100 µM | > 100 µM | > 100 µM |
| COC(=O)C1(Cc2ccccc2)Cc2ccccc2C1 | 41.8 µM | 78.3 µM | > 100 µM | 96.2 µM | 84.9 µM | > 100 µM | 75.6 µM | 42.4 µM | > 100 µM | 35.4 µM |
| CC(C)CNC(=O)Cn1c(-c2ccccc2)cc2ccccc21 | > 100 µM | > 100 µM | > 100 µM | > 100 µM | > 100 µM | > 100 µM | > 100 µM | > 100 µM | > 100 µM | > 100 µM |
| CC(C)OP(=O)(OC(C)C)C(C(C)C)N(C)/C(F)=N/C(F)(F)F (stereo not given) | > 100 µM | > 100 µM | > 100 µM | > 100 µM | > 100 µM | > 100 µM | > 100 µM | > 100 µM | > 100 µM | > 100 µM |
| CCc1c(C)c(C#N)c(=S)n(C2OC(CO)C(O)C(O)C2O)c1C (stereo not given) | > 100 µM | > 100 µM | > 100 µM | > 100 µM | > 100 µM | > 100 µM | > 100 µM | > 100 µM | > 100 µM | > 100 µM |
| CSc1cc(N)ccc1N=Nc1ccc(S(N)(=O)=O)cc1 | 97.4 µM | 50.4 µM | > 100 µM | 59.8 µM | 71.6 µM | 53.6 µM | 32 µM | 84.5 µM | > 100 µM | 84.4 µM |
| CCOC(=O)C(/C=N\C(=S)Nc1ccc(OCC)cc1)=C(/O)c1ccccc1 | > 100 µM | > 100 µM | > 100 µM | > 100 µM | > 100 µM | > 100 µM | > 100 µM | > 100 µM | > 100 µM | > 100 µM |
| CC1(COS(=O)(=O)OCC2(C)COS(=O)(=O)OC2)COS(=O)(=O)OC1 | > 78.4 µM | > 96.8 µM | > 88.6 µM | > 100 µM | > 100 µM | > 100 µM | > 100 µM | > 64.4 µM | > 100 µM | > 100 µM |
| O=c1[nH]c(Nc2cccc(Cl)c2)nc2nc[nH]c12 | > 100 µM | > 100 µM | > 100 µM | > 100 µM | > 100 µM | > 100 µM | > 100 µM | > 100 µM | > 100 µM | > 100 µM |
